Where two headings read alike, the source gives them in different places.
Columns and labels:
[1] = Decorporation of Cobalt-60: tissue distribution and excretion of IV administered Co-60 in rats; assay type: in vivo, Male Wistar-Han rats; details: for Co-60 Dose % for animal group: single IV Co-60 14 KBq, 48 hr post exposure; for effect on total Co-60 excretion (urine and feces): monitored 2 days, not statistically significant, 15 mg/kg
Description: Materials. Chloride stock solution of ^60Co as ^60CoCl2 was diluted with sterile saline solution to adjust to the desired activity and used for the IV dosing. Activity of the dosing solution was determined using automated Wallac 1480 (Perkin Elmer) gamma counter equipped with 3 inch NaI(TI) crystal shielded detector.
Animals. Male Wistar-Han rats were obtained from Charles River Breeding Laboratory (Raleigh, N.C.) with indwelling jugular vein cannula. Animals were provided food and water ad libitum during acclimatization. The light cycle was 12 hour light/12 hour dark and relative humidity and temperature maintained at 50±15% and 22±2° C. All animal use protocols were approved by the Institutional Animal Care and Use Committee at Battelle, Pacific Northwest Division and studies were performed according to the “Guide for the Care and Use of Laboratory Animals” (National Research Council, Washington D.C., 1996).
Dosing regimen. Animals were restricted from food overnight prior to exposure. At the time of exposure, groups of animals (N=6) received a single intravenous (IV) injection (0.2 mL) of ^60Co solution at 14.0±0.6 KBq dose in sterile saline via an indwelling jugular vein cannula. […] The actual doses delivered were calculated based on the individual animal weights (Table 3). One group of animals was dosed with the radionuclide without subsequent administration of the chelation material to serve as control group. Following dosing, animals were placed in Nalgene metabolism cages for separate collection of urine and feces. […] Animals were sacrificed 48 hr post radionuclide administration. At sacrifice, blood and tissues (liver, kidney, spleen, gastrointestinal tract, muscle, bone, bone marrow, and lung) were collected, weighed and counted for radioactivity using a Wallac 1480 gamma counter. Gamma count data were normalized to percent administered dose after adjusting the grams of tissue collected for total organ mass.
Data statistical evaluation. Each data group was subjected to Dixon's Q-test to evaluate for potential outliers. In this test Q parameter of 0.625 (N=6, 95% confidence level, a=0.05) was used (1). For each tissue, a preliminary F-test (95% confidence level, a=0.05) for the equality of variances of the control and each treatment group was performed using Excel software. If the calculated probability p value was less than 0.05, the variances were assumed to be not equal. Based on this information, “T-test: Two-Sample Assuming Unequal Variances” or “T-test: Two-Sample Assuming Equal Variances” (95% confidence level, a=0.05) was performed using Excel software. The calculated p-value less than 0.05 provides evidence to reject the null hypothesis of equal means. The obtained statistical parameters listed in Table 4 served as guidelines for data evaluation (Table 5; calculation assumes that total skeleton, blood, or muscle is approximately 7.3, 6, or 40% of the body weight of the animal, respectively; Co-60 in skeleton is calculated based on the femur data—R. P. Brown, M. D. Delp, S. L. Undstedt, L. R. Rhomberg, and R. P. Beliles, Physiological Parameter Values for Physiologically Based Pharmacokinetic Models. Toxicology and Industrial Health, 1997, 13(4): 407-484).

[2] = Decorporation of Polonium-210: tissue distribution of IV administered Po-210 in rats; assay type: in vivo, Wistar-Han rats; details: for % Reduction of Po-210 vs Po-210 Control / effect on polonium-210 level (in words): oral 15 mg/kg x 5, day 6; for Po-210 dpm/gm for animal group: single IV Po-210 approx. 90 kBq, oral 15 mg/kg every 24 h x 5, sacrifice day 6
Description: The digested sample was diluted with distilled water to reduce the nitric acid to approximately 1 M. An aliquot of the resulting solution was added to Ultima Gold XR liquid scintillation cocktail (Packard BioScience, Meriden, Conn.), counted and corrected for possible quenching.

[3] = Cu^1+, cited from earlier work
[4] = Hg^2+, cited from earlier work
[5] = Ni^2+, cited from earlier work
[6] = Zn^2+, cited from earlier work
[7] = Cd^2+, cited from earlier work
[8] = Co^2+; cited from earlier work
[9] = Pb^2+, cited from earlier work
[10] = Ag^1+, cited from earlier work
[11] = In^3+, cited from earlier work
[12] = Tl^1+; cited from earlier work
[13] = single oral dose 15 mg/kg, day 1 post exposure

## CC(C)(S)[C@@H](N)C(=O)O [Penicillamine, 3-mercapto-D-valine]
[1]; Blood, single oral dose 15 mg/kg
  Co-60 Dose % for animal group: 0.089 ± 0.014%
[1]; Blood, single oral dose 15 mg/kg, 48 hr
  % Reduction of Co-60 vs Co-60 Control: 0%
[1]; Bone Marrow, single oral dose 15 mg/kg
  Co-60 Dose % for animal group: Below detection
[1]; Intestine, single oral dose 15 mg/kg
  Co-60 Dose % for animal group: 0.94 ± 0.25%
[1]; Intestine, single oral dose 15 mg/kg, 48 hr
  % Reduction of Co-60 vs Co-60 Control: 47%
[1]; Kidney, single oral dose 15 mg/kg
  Co-60 Dose % for animal group: 0.31 ± 0.07%
[1]; Kidney, single oral dose 15 mg/kg, 48 hr
  % Reduction of Co-60 vs Co-60 Control: 56%
[1]; Liver, single oral dose 15 mg/kg
  Co-60 Dose % for animal group: 0.99 ± 0.25%
[1]; Liver, single oral dose 15 mg/kg, 48 hr
  % Reduction of Co-60 vs Co-60 Control: 51%
[1]; Lung, single oral dose 15 mg/kg
  Co-60 Dose % for animal group: 0.16 ± 0.07%
[1]; Lung, single oral dose 15 mg/kg, 48 hr
  % Reduction of Co-60 vs Co-60 Control: 0%
[1]; Muscle, single oral dose 15 mg/kg
  Co-60 Dose % for animal group: 0.63 ± 0.18%
[1]; Muscle, single oral dose 15 mg/kg, 48 hr
  % Reduction of Co-60 vs Co-60 Control: 39%
[1]; Spleen, single oral dose 15 mg/kg
  Co-60 Dose % for animal group: 0.056 ± 0.007%
[1]; Spleen, single oral dose 15 mg/kg, 48 hr
  % Reduction of Co-60 vs Co-60 Control: 0%
[1]; Stomach, single oral dose 15 mg/kg
  Co-60 Dose % for animal group: 0.041 ± 0.014%
[1]; Stomach, single oral dose 15 mg/kg, 48 hr
  % Reduction of Co-60 vs Co-60 Control: 45%
[1]; Total Skeleton (from femur data), single oral dose 15 mg/kg
  Co-60 Dose % for animal group: 0.32 ± 0.17%
[1]; Total Skeleton, single oral dose 15 mg/kg, 48 hr
  % Reduction of Co-60 vs Co-60 Control: 49%
[1]; single oral dose 15 mg/kg, 48 hr
  effect on blood levels of Co-60: slightly decreased
[1]; [13]
  effect on urinary elimination of Co-60: did not change
  increase of fecal elimination of Co-60: about 3%
[1]; single oral dose 15 mg/kg
  effect on total Co-60 excretion (urine and feces): slightly increased
[1]; single oral dose 15 mg/kg, listed as penicillamine
  effect on total Co-60 excretion (urine and feces): appeared to accelerate
[1]; single oral dose, Co-60
  reduction in the fraction of administered dose in the skeleton (based on femur data), liver and kidney: 51-56%
[2]; Blood
  % Reduction of Po-210 vs Po-210 Control: 18%
  Po-210 dpm/gm for animal group: 28482 ± 6375 dpm/gm
[2]; Femur
  Po-210 dpm/gm for animal group: 22969 ± 4055 dpm/gm
[2]; Kidney
  % Reduction of Po-210 vs Po-210 Control: −15%
  Po-210 dpm/gm for animal group: 216172 ± 31993 dpm/gm
[2]; Liver
  % Reduction of Po-210 vs Po-210 Control: 12%
  Po-210 dpm/gm for animal group: 124648 ± 47423 dpm/gm
[2]; Lung
  % Reduction of Po-210 vs Po-210 Control: 20%
  effect on polonium-210 level (in words): reduced
  Po-210 dpm/gm for animal group: 67342 ± 7895 dpm/gm
[2]; Spleen
  Po-210 dpm/gm for animal group: 236736 ± 35488 dpm/gm
[2]; femur
  % Reduction of Po-210 vs Po-210 Control: 13%
  effect on polonium-210 level (in words): reduced
[2]; spleen
  % Reduction of Po-210 vs Po-210 Control: 44%
  effect on polonium-210 level (in words): reduced
[3]
  binding stability constant (log K): 18.18 (Cu^1+)
[3]; listed as penicillamine
  binding stability constant (log K): very strongly
[4]
  binding stability constant (log K): 16.3
[4]; listed as penicillamine
  binding stability constant (log K): very strongly
[5]
  binding stability constant (log K): 10.70
[5]; listed as penicillamine
  binding stability constant (log K): fairly strong
[6]
  binding stability constant (log K): 9.71
[6]; listed as penicillamine
  binding stability constant (log K): fairly strong
[7]
  binding stability constant (log K): 11.55
[7]; listed as penicillamine
  binding stability constant (log K): fairly strong
[8]
  binding stability constant (log K): 8.98
[9]
  binding stability constant (log K): 12.3
[9]; listed as penicillamine
  binding stability constant (log K): fairly strong
[10]
  binding stability constant (log K): 12.4
[10]; listed as penicillamine
  binding stability constant (log K): fairly strong
[11]
  binding stability constant (log K): 15.33
[11]; listed as penicillamine
  binding stability constant (log K): very strongly
[12]
  binding stability constant (log K): 3.58
